Values quoted from earlier work, collected in PubChem BioAssay AID1259409 (Chemical Carcinogenesis Research Information System (CCRIS), 2018).
Several values for one entry are separate records, joined by “and”; a condition that tells them apart may be missing. Equal values may be shown once.

System: rodent chemically induced tumor inhibition, incidence and multiplicity
Assay: CCRIS tumor inhibitor studies
Conditions: Carcinogen: NONE USED, Route [Inhibitor]: ORAL, Promoter: NONE USED

## CC(N)Cc1ccccc1 (stereo not given)
Dose [Inhibitor]: 0, 20 PPM IN FEED FOR 103 WK (STUDY DURATION: 2 YR), Species: MOUSE, Strain/Sex: B6C3F1/FEMALE, Target Tissue: Type of Lesion: HARDERIAN GLAND: ADENOMA
  tumour outcome (control, treated, inhibition, significance): 5/50 (10%), 2/50 (4%), 60%, not calculated
Dose [Inhibitor]: 0, 20 PPM IN FEED FOR 103 WK (STUDY DURATION: 2 YR), Species: MOUSE, Strain/Sex: B6C3F1/FEMALE, Target Tissue: Type of Lesion: LIVER: ADENOMA
  tumour outcome (control, treated, inhibition, significance): 5/50 (10%), 1/50 (2%), 80%, not calculated
Dose [Inhibitor]: 0, 20 PPM IN FEED FOR 103 WK (STUDY DURATION: 2 YR), Species: MOUSE, Strain/Sex: B6C3F1/FEMALE, Target Tissue: Type of Lesion: LUNG: ADENOMA OR CARCINOMA
  tumour outcome (control, treated, inhibition, significance): 8/50 (16%), 6/50 (12%), 25%, not calculated
Dose [Inhibitor]: 0, 20 PPM IN FEED FOR 103 WK (STUDY DURATION: 2 YR), Species: MOUSE, Strain/Sex: B6C3F1/FEMALE, Target Tissue: Type of Lesion: LUNG: ADENOMA
  tumour outcome (control, treated, inhibition, significance): 7/50 (14%), 4/50 (8%), 43%, not calculated
Dose [Inhibitor]: 0, 20 PPM IN FEED FOR 103 WK (STUDY DURATION: 2 YR), Species: MOUSE, Strain/Sex: B6C3F1/MALE, Target Tissue: Type of Lesion: HARDERIAN GLAND: ADENOMA
  tumour outcome (control, treated, inhibition, significance): 4/50 (8%), 2/50 (4%), 50%, not calculated
Dose [Inhibitor]: 0, 20 PPM IN FEED FOR 103 WK (STUDY DURATION: 2 YR), Species: MOUSE, Strain/Sex: B6C3F1/MALE, Target Tissue: Type of Lesion: LIVER: ADENOMA OR CARCINOMA
  tumour outcome (control, treated, inhibition, significance): 14/50 (28%), 12/50 (24%), 15%, not calculated
Dose [Inhibitor]: 0, 20 PPM IN FEED FOR 103 WK (STUDY DURATION: 2 YR), Species: MOUSE, Strain/Sex: B6C3F1/MALE, Target Tissue: Type of Lesion: LIVER: ADENOMA
  tumour outcome (control, treated, inhibition, significance): 10/50 (20%), 7/50 (14%), 30%, not calculated
Dose [Inhibitor]: 0, 20 PPM IN FEED FOR 103 WK (STUDY DURATION: 2 YR), Species: MOUSE, Strain/Sex: B6C3F1/MALE, Target Tissue: Type of Lesion: LIVER: CARCINOMA
  tumour outcome (control, treated, inhibition, significance): 4/50 (8%), 6/50 (12%), -50%, not calculated
Dose [Inhibitor]: 0, 20 PPM IN FEED FOR 103 WK (STUDY DURATION: 2 YR), Species: MOUSE, Strain/Sex: B6C3F1/MALE, Target Tissue: Type of Lesion: LUNG: ADENOMA
  tumour outcome (control, treated, inhibition, significance): 6/50 (12%), 2/50 (4%), 67%, not calculated
Dose [Inhibitor]: 0, 20 PPM IN FEED FOR 103 WK (STUDY DURATION: 2 YR), Species: RAT, Strain/Sex: F344/FEMALE, Target Tissue: Type of Lesion: ANTERIOR PITUITARY GLAND: ADENOMA
  tumour outcome (control, treated, inhibition, significance): 3/50 (62%), 24/48 (50%), 19%, not calculated
Dose [Inhibitor]: 0, 20 PPM IN FEED FOR 103 WK (STUDY DURATION: 2 YR), Species: RAT, Strain/Sex: F344/FEMALE, Target Tissue: Type of Lesion: MAMMARY GLAND: FIBROADENOMA
  tumour outcome (control, treated, inhibition, significance): 21/50 (42%), 11/50 (22%), 48%, not calculated
Dose [Inhibitor]: 0, 20 PPM IN FEED FOR 103 WK (STUDY DURATION: 2 YR), Species: RAT, Strain/Sex: F344/FEMALE, Target Tissue: Type of Lesion: UTERUS: ENDOMETRIAL STROMA POLYP
  tumour outcome (control, treated, inhibition, significance): 10/50 (20%), 6/50 (12%), 40%, not calculated
Dose [Inhibitor]: 0, 20 PPM IN FEED FOR 103 WK (STUDY DURATION: 2 YR), Species: RAT, Strain/Sex: F344/MALE, Target Tissue: Type of Lesion: ADRENAL GLAND: PHEOCHROMOCYTOMA
  tumour outcome (control, treated, inhibition, significance): 23/49 (47%), 15/44 (34%), 28%, not calculated
Dose [Inhibitor]: 0, 20 PPM IN FEED FOR 103 WK (STUDY DURATION: 2 YR), Species: RAT, Strain/Sex: F344/MALE, Target Tissue: Type of Lesion: ANTERIOR PITUITARY GLAND: ADENOMA
  tumour outcome (control, treated, inhibition, significance): 15/49 (31%), 15/48 (31%), 0%, not significant
Dose [Inhibitor]: 0, 100 PPM IN FEED FOR 103 WK (STUDY DURATION: 2 YR), Species: MOUSE, Strain/Sex: B6C3F1/FEMALE, Target Tissue: Type of Lesion: ANTERIOR PITUITARY GLAND: ADENOMA
  tumour outcome (control, treated, inhibition, significance): 12/49 (24%), 6/49 (12%), 50%, not calculated and 12/49 (24%), 1/46 (2%), 92%, p<0.01
Dose [Inhibitor]: 0, 100 PPM IN FEED FOR 103 WK (STUDY DURATION: 2 YR), Species: MOUSE, Strain/Sex: B6C3F1/FEMALE, Target Tissue: Type of Lesion: HARDERIAN GLAND: ADENOMA
  tumour outcome (control, treated, inhibition, significance): 5/50 (10%), 0/47 (0%), 100%, p<0.05
Dose [Inhibitor]: 0, 100 PPM IN FEED FOR 103 WK (STUDY DURATION: 2 YR), Species: MOUSE, Strain/Sex: B6C3F1/FEMALE, Target Tissue: Type of Lesion: LUNG: ADENOMA OR CARCINOMA
  tumour outcome (control, treated, inhibition, significance): 8/50 (16%), 1/47 (2%), 88%, p<0.01
Dose [Inhibitor]: 0, 100 PPM IN FEED FOR 103 WK (STUDY DURATION: 2 YR), Species: MOUSE, Strain/Sex: B6C3F1/FEMALE, Target Tissue: Type of Lesion: LUNG: ADENOMA
  tumour outcome (control, treated, inhibition, significance): 7/50 (14%), 1/47 (2%), 86%, p<0.05
Dose [Inhibitor]: 0, 100 PPM IN FEED FOR 103 WK (STUDY DURATION: 2 YR), Species: MOUSE, Strain/Sex: B6C3F1/MALE, Target Tissue: Type of Lesion: LIVER: ADENOMA OR CARCINOMA
  tumour outcome (control, treated, inhibition, significance): 14/50 (28%), 2/50 (4%), 86%, p<0.01
Dose [Inhibitor]: 0, 100 PPM IN FEED FOR 103 WK (STUDY DURATION: 2 YR), Species: MOUSE, Strain/Sex: B6C3F1/MALE, Target Tissue: Type of Lesion: LIVER: ADENOMA
  tumour outcome (control, treated, inhibition, significance): 10/50 (20%), 1/50 (2%), 90%, p<0.01
Dose [Inhibitor]: 0, 100 PPM IN FEED FOR 103 WK (STUDY DURATION: 2 YR), Species: MOUSE, Strain/Sex: B6C3F1/MALE, Target Tissue: Type of Lesion: LIVER: CARCINOMA
  tumour outcome (control, treated, inhibition, significance): 4/50 (8%), 1/50 (2%), 75%, not calculated
Dose [Inhibitor]: 0, 100 PPM IN FEED FOR 103 WK (STUDY DURATION: 2 YR), Species: MOUSE, Strain/Sex: B6C3F1/MALE, Target Tissue: Type of Lesion: LUNG: ADENOMA
  tumour outcome (control, treated, inhibition, significance): 6/50 (12%), 3/50 (6%), 50%, not calculated
Dose [Inhibitor]: 0, 100 PPM IN FEED FOR 103 WK (STUDY DURATION: 2 YR), Species: RAT, Strain/Sex: F344/FEMALE, Target Tissue: Type of Lesion: ANTERIOR PITUITARY GLAND: ADENOMA
  tumour outcome (control, treated, inhibition, significance): 31/50 (62%), 19/50 (38%), 39%, p<0.05
Dose [Inhibitor]: 0, 100 PPM IN FEED FOR 103 WK (STUDY DURATION: 2 YR), Species: RAT, Strain/Sex: F344/FEMALE, Target Tissue: Type of Lesion: MAMMARY GLAND: FIBROADENOMA
  tumour outcome (control, treated, inhibition, significance): 21/50 (42%), 2/50 (4%), 90%, p<0.01
Dose [Inhibitor]: 0, 100 PPM IN FEED FOR 103 WK (STUDY DURATION: 2 YR), Species: RAT, Strain/Sex: F344/FEMALE, Target Tissue: Type of Lesion: UTERUS: ENDOMETRIAL STROMA POLYP
  tumour outcome (control, treated, inhibition, significance): 10/50 (20%), 3/50 (6%), 70%, p<0.05
Dose [Inhibitor]: 0, 100 PPM IN FEED FOR 103 WK (STUDY DURATION: 2 YR), Species: RAT, Strain/Sex: F344/MALE, Target Tissue: Type of Lesion: ADRENAL GLAND: PHEOCHROMOCYTOMA
  tumour outcome (control, treated, inhibition, significance): 23/49 (47%), 7/50 (14%), 70%, p<0.01
Dose [Inhibitor]: 0, 100 PPM IN FEED FOR 103 WK (STUDY DURATION: 2 YR), Species: RAT, Strain/Sex: F344/MALE, Target Tissue: Type of Lesion: ANTERIOR PITUITARY GLAND: ADENOMA
  tumour outcome (control, treated, inhibition, significance): 15/49 (31%), 9/49 (18%), 42%, not calculated
Dose [Inhibitor]: 0, 100 PPM IN FEED FOR 103 WK (STUDY DURATION; 2 YR), Dose [Inhibitor]: 0, 100 PPM IN FEED FOR 103 WK (STUDY DURATION; 2 YR), Species: MOUSE, Strain/Sex: B6C3F1/MALE, Target Tissue: Type of Lesion: HARDERIAN GLAND: ADENOMA
  tumour outcome (control, treated, inhibition, significance): 4/50 (8%), 0/50 (0%), 100%, not calculated
Dose [Inhibitor]: O, 20 PPM IN FEED FOR 103 WK (STUDY DURATION: 2 YR), Species: MOUSE, Strain/Sex: B6C3F1/MALE, Target Tissue: Type of Lesion: LUNG: ADENOMA OR CARCINOMA
  tumour outcome (control, treated, inhibition, significance): 8/50 (16%), 3/50 (6%), 63%, not calculated
Dose [Inhibitor]: O, 100 PPM IN FEED FOR 103 WK (STUDY DURATION: 2 YR), Species: MOUSE, Strain/Sex: B6C3F1/MALE, Target Tissue: Type of Lesion: LUNG: ADENOMA OR CARCINOMA
  tumour outcome (control, treated, inhibition, significance): 8/50 (16%), 4/50 (8%), 50%, not calculated
